Where “and” joins values, the source holds several entries; their conditions need not be identical. Identical values can stand only once.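 48-hour exposure; five concentrations; linearly interpolated endpoints. GI50 is the concentration that inhibits growth by half. Definition used: TGI = concentration required for complete inhibition of growth.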
Tests used:
Assay in all cases: growth of human tumour cells (NCI), 48 h
[1] = tested on: A498 renal
[2] = tested on: A549 NSCLC
[3] = tested on: CCRF-CEM leukemia
[4] = tested on: COLO 205 colon
[5] = tested on: HCC-2998 colon
[6] = tested on: KM12 colon
[7] = tested on: MDA-N
[8] = tested on: MOLT-4 leukemia
[9] = tested on: NCI-H23 lung
[10] = tested on: OVCAR-3 ovarian
[11] = tested on: PC-3 prostate
[12] = tested on: RXF 393 renal
[13] = tested on: SK-OV-3 ovarian
[14] = tested on: SN12C renal
[15] = tested on: SNB-75 CNS
[16] = tested on: U251 CNS
[17] = tested on: UACC-62 melanoma

Row | SMILES | TGI [1] [µM] | TGI [2] [µM] | TGI [3] [µM] | TGI [4] [µM] | TGI [5] [µM] | TGI [6] [µM] | TGI [7] [µM] | TGI [8] [µM] | TGI [9] [µM] | TGI [10] [µM] | TGI [11] [µM] | TGI [12] [µM] | TGI [13] [µM] | TGI [14] [µM] | TGI [15] [µM] | TGI [16] [µM] | TGI [17] [µM] | GI50 [2]
1 | CN(C)CCCNC(=O)c1cc(NS(=O)(=O)c2ccc3c(c2)C(=O)c2ccccc2C3=O)cn1C | 42.6 | > 100 | > 100 | > 100 | 57.3 | 41.1 | 60 | > 100 | 64.7 | > 100 | > 100 | 57.4 | > 100 | 90.7 | 56 | > 100 | 41.4 | –
2 | CCOC(=O)CCC(NC(=O)c1ccc(Oc2nc3c(N)cc(C(F)(F)F)cc3nc2-c2ccccc2)cc1)C(=O)OCC (stereo not given) | > 94.3 | > 100 | > 100 | > 100 | > 100 | > 100 | > 100 | > 100 | > 59.3 | > 30.9 | > 79.4 | 47.7 | > 58.6 | > 100 | 25.4 | > 100 | > 100 | –
3 | CCS(=O)c1c2cc(OC)ccc2nc2ccc(OC)cc12 (stereo not given) | 33.6 | 51.1 | > 25.6 | 15.4 | 41.8 | 41 | 16.3 | > 23.8 | 19.9 | 14.9 | 24.9 | 17.2 | 47.5 | 8.99 | 38.2 | > 55.3 | 33.4 | –
4 | COC(=O)Cc1c([C@H]2[C@H](CC(=O)OC)c3ccccc3N2S(=O)(=O)c2ccc(C)cc2)[nH]c2ccccc12 | > 100 | > 100 | > 100 | > 100 | > 100 | > 100 | > 100 | > 100 | > 100 | > 100 | > 100 | > 100 | > 100 | > 100 | > 100 | > 100 | > 100 | –
5 | CC/C(Cl)=N\OC(=O)Nc1ccc(OC)c(C)c1 | 61.2 | > 71.4 | > 38.8 | 31.4 | 43.2 | > 60 | 41 | 47 | 36.5 | 50 | > 92.6 | 31 | > 100 | 32.4 | > 100 | > 100 | 28.9 | –
6 | O=S(=O)(O)c1ccc2c(N=Nc3ccc(S(=O)(=O)O)c4ccccc34)c(O)c(S(=O)(=O)O)cc2c1 | > 100 | > 100 | > 100 | > 100 | > 100 | > 100 | > 100 | > 100 | > 100 | > 100 | > 100 | > 100 | > 100 | > 100 | > 100 | > 100 | > 100 | 28.7 µM and > 100 µM
7 | COc1cc2cc3c4c(cc(OC)c(OC)c4c2cc1OC)CCN3C | > 38.1 | > 50 | 7.27 | 39.6 | 33.1 | > 50 | > 50 | > 31.4 | > 50 | 31.9 | > 29.9 | 12.3 | > 50 | > 50 | 27.8 | > 50 | 14.3 | –

— PubChem BioAssay (NCI)
